Laboratory results: ChEMBL document CHEMBL5442175, “EUbOPEN Chemogenomics Library - PDSP Secondary Binding” (2024)
pKi: −log10 of the molar value. Counter-ions that a name gives are not always drawn.

How the values were obtained:
[1] = molecular target: Sigma intracellular receptor 2 (Homo sapiens, UniProt Q5BJF2); test: (§1) PDSP Secondary Binding target: TMEM97 - Compounds are tested at 10 uM concentration, plate are incubated at room temperature in the dark for 90 minutes. Reaction are stopped by vacuum filtration onto 0.3% polyethyleneimine soaked filter mats using Filtermate harvester. Scintillation cocktail is then melted onto microwave-dried filters on a hot plate and the radio activity is counted in Microbia counter.
Chain of Sigma intracellular receptor 2 (Q5BJF2 whole entry): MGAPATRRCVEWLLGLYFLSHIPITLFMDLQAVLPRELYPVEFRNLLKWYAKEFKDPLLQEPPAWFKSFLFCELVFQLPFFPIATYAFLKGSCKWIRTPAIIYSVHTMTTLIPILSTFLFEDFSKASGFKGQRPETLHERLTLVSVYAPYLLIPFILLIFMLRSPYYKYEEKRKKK

[2] = molecular target: T1, Alpha-1B adrenergic receptor (Homo sapiens, UniProt P35368); test: as §1, with “ADRA1B” for “TMEM97”
T1 sequence (P35368 whole entry): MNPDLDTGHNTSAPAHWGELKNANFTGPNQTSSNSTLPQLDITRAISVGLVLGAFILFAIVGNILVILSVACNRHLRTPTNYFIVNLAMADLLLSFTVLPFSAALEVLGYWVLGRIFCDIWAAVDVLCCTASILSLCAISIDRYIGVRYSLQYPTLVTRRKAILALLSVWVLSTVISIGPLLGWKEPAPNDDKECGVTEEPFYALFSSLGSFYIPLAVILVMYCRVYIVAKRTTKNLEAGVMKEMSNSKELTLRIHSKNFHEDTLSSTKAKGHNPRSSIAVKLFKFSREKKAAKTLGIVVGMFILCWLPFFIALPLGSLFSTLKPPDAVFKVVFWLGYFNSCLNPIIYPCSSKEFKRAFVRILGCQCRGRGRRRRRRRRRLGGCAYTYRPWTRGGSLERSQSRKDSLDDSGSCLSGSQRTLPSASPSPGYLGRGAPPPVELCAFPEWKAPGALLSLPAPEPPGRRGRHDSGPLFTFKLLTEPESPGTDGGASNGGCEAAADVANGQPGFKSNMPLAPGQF

[3] = molecular target: 5-hydroxytryptamine receptor 7 (Homo sapiens, UniProt P34969); test: as §1, with “HTR7” for “TMEM97”
Chain of 5-hydroxytryptamine receptor 7 (P34969 whole entry): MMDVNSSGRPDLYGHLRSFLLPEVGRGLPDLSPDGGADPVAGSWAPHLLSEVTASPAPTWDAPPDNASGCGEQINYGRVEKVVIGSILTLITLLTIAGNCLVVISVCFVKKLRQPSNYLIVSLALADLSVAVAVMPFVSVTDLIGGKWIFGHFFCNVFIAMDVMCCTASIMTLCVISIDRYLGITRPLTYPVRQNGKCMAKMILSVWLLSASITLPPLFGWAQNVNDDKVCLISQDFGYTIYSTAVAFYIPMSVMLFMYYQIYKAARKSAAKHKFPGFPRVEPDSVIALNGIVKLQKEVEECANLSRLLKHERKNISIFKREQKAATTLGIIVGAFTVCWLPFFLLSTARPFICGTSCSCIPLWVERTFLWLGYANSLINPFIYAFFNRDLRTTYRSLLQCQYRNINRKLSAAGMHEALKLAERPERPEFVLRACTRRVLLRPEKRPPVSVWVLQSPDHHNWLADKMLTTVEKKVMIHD

[4] = molecular target: T2, Alpha-1D adrenergic receptor (Homo sapiens, UniProt P25100); test: as §1, with “ADRA1D” for “TMEM97”
T2 sequence (P25100 whole entry): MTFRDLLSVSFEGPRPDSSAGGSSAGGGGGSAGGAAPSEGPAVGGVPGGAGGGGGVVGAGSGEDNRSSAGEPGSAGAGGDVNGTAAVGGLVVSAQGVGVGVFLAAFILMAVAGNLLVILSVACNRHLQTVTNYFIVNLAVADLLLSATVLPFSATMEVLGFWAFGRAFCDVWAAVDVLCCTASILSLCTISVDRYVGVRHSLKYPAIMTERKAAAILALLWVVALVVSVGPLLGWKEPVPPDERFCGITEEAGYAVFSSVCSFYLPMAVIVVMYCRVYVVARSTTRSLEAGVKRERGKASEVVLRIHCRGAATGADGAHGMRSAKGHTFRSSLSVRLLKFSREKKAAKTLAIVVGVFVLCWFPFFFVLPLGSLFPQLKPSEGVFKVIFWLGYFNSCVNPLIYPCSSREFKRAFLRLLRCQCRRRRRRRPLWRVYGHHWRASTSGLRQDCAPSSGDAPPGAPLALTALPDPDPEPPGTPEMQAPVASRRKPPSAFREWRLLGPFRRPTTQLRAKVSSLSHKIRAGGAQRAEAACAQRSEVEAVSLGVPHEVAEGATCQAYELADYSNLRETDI

[5] = molecular target: T3, 5-hydroxytryptamine receptor 2C (Homo sapiens, UniProt P28335); test: as §1, with “HTR2C” for “TMEM97”
T3 sequence (P28335 whole entry): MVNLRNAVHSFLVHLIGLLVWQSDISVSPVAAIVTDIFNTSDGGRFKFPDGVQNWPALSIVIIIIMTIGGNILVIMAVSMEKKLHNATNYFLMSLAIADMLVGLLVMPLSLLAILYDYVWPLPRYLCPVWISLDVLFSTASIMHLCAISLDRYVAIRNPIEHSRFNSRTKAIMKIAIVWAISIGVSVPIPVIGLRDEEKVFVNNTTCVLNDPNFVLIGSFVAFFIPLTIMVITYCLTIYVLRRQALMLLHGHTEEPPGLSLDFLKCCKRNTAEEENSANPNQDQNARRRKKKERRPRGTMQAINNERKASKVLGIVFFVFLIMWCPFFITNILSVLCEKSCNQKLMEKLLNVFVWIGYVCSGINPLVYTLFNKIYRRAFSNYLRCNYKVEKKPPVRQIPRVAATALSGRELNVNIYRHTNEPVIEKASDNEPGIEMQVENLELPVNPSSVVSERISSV

[6] = molecular target: Sigma non-opioid intracellular receptor 1 (Homo sapiens, UniProt Q99720); test: as §1, with “SIGMAR1” for “TMEM97”
Chain of Sigma non-opioid intracellular receptor 1 (Q99720 whole entry): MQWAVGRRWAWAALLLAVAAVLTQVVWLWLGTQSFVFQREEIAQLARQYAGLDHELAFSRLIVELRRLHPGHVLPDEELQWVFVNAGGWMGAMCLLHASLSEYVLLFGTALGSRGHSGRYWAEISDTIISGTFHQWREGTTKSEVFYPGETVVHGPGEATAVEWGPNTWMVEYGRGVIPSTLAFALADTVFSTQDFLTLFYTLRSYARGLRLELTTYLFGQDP

[7] = molecular target: 5-hydroxytryptamine receptor 6 (Homo sapiens, UniProt P50406); test: as §1, with “HTR6” for “TMEM97”
Chain of 5-hydroxytryptamine receptor 6 (P50406 whole entry): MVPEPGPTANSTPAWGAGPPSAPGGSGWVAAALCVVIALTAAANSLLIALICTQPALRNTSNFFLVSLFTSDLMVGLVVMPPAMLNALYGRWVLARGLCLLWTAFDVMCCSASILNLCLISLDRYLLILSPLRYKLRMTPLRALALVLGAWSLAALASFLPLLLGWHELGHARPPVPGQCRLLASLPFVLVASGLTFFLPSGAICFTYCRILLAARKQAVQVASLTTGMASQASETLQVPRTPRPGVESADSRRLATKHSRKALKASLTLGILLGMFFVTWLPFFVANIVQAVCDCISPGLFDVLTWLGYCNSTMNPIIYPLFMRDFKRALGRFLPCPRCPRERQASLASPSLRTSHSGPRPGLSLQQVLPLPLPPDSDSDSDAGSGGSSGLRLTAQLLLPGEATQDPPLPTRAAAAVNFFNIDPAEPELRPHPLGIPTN

D(3) dopamine receptor = D(3) dopamine receptor (Homo sapiens, UniProt P35462); test: as §1, with “DRD3” for “TMEM97”
Chain of D(3) dopamine receptor (P35462 whole entry): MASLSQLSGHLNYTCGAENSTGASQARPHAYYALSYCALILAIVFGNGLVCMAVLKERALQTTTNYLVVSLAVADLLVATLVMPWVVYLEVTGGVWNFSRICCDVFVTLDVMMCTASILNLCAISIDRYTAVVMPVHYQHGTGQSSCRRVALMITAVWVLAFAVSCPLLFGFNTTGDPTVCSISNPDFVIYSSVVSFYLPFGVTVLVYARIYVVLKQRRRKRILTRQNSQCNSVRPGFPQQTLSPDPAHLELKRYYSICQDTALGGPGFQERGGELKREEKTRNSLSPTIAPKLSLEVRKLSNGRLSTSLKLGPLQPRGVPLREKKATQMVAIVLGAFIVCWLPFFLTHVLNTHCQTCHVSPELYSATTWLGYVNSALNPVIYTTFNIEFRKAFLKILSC

[8] = molecular target: 5-hydroxytryptamine receptor 1D (Homo sapiens, UniProt P28221); test: as §1, with “HTR1D” for “TMEM97”
Chain of 5-hydroxytryptamine receptor 1D (P28221 whole entry): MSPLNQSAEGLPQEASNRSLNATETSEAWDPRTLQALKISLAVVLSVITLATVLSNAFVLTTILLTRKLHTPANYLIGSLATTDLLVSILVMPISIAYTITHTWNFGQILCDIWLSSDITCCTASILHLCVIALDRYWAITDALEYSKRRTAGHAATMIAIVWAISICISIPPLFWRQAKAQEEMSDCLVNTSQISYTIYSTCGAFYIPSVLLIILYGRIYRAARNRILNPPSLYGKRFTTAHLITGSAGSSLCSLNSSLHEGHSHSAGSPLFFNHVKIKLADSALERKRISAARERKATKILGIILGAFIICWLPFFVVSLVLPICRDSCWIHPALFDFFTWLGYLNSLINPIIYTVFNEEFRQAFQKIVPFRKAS

[9] = molecular target: T4, Alpha-2B adrenergic receptor (Homo sapiens, UniProt P18089); test: as §1, with “ADRA2B” for “TMEM97”
T4 sequence (P18089 whole entry): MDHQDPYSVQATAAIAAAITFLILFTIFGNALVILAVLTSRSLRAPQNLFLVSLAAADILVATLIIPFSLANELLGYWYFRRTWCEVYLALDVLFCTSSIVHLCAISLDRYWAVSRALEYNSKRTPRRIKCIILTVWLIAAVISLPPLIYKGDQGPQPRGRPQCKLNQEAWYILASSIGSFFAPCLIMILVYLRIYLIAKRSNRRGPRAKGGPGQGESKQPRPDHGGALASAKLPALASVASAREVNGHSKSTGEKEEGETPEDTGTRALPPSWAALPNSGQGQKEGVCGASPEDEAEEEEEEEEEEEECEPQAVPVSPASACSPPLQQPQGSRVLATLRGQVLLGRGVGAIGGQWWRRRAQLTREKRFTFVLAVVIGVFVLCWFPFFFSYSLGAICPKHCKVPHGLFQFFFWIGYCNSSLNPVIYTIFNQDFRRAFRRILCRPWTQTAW

[10] = molecular target: T5, Alpha-2A adrenergic receptor (Homo sapiens, UniProt P08913); test: as §1, with “ADRA2A” for “TMEM97”
T5 sequence (P08913 whole entry): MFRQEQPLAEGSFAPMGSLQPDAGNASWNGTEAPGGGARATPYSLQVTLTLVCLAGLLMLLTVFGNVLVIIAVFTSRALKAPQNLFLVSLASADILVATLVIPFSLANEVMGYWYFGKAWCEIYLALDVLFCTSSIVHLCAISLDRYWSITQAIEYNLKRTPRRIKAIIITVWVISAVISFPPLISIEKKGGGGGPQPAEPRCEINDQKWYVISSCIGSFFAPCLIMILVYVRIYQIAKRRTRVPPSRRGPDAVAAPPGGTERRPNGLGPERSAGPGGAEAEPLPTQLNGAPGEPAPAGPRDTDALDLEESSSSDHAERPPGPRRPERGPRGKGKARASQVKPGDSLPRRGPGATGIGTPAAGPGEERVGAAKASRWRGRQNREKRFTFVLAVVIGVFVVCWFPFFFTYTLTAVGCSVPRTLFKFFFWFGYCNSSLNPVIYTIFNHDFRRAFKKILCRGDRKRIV

Histamine H1 receptor = Histamine H1 receptor (Homo sapiens, UniProt P35367); test: as §1, with “HRH1” for “TMEM97”
Chain of Histamine H1 receptor (P35367 whole entry): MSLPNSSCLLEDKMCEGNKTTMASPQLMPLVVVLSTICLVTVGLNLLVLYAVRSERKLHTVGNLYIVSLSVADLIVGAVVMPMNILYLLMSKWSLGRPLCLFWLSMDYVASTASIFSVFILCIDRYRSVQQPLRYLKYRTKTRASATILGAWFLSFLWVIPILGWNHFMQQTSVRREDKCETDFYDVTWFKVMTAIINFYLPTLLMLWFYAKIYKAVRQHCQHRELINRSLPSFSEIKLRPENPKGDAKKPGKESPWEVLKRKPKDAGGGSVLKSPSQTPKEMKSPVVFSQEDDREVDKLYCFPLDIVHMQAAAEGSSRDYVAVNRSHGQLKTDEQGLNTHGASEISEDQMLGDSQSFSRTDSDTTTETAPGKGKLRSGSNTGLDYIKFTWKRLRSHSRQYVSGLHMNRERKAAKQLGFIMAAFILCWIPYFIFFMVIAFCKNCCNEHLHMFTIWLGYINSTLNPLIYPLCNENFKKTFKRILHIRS

[11] = molecular target: 5-hydroxytryptamine receptor 2A (Homo sapiens, UniProt P28223); test: as §1, with “HTR2A” for “TMEM97”
Chain of 5-hydroxytryptamine receptor 2A (P28223 whole entry): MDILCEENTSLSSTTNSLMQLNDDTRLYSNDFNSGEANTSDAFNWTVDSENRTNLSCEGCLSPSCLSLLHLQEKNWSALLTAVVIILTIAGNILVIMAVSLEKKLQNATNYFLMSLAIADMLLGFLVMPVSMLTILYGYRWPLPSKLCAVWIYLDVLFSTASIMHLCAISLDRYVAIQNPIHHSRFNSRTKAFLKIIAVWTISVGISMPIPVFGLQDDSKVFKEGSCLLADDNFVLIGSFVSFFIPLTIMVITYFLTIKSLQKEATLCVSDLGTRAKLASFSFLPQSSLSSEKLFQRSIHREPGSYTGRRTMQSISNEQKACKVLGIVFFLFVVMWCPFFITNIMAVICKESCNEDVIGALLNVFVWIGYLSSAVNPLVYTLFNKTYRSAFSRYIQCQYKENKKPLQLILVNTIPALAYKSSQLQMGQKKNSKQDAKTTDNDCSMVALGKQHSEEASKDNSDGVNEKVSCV

Mu-type opioid receptor = Mu-type opioid receptor (Homo sapiens, UniProt P35372); test: as §1, with “OPRM1” for “TMEM97”
Chain of Mu-type opioid receptor (P35372 whole entry): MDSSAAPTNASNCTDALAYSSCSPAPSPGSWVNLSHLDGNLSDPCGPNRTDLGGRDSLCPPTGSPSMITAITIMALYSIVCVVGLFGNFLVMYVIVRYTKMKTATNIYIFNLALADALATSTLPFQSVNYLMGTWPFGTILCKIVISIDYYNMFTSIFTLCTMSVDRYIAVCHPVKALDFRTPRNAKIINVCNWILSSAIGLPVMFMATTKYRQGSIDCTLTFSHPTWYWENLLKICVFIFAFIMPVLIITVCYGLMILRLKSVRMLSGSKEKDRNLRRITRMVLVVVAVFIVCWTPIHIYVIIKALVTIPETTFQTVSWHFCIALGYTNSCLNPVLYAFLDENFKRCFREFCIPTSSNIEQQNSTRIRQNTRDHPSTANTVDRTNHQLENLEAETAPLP

[12] = molecular target: 5-hydroxytryptamine receptor 1B (Homo sapiens, UniProt P28222); test: as §1, with “HTR1B” for “TMEM97”
Chain of 5-hydroxytryptamine receptor 1B (P28222 whole entry): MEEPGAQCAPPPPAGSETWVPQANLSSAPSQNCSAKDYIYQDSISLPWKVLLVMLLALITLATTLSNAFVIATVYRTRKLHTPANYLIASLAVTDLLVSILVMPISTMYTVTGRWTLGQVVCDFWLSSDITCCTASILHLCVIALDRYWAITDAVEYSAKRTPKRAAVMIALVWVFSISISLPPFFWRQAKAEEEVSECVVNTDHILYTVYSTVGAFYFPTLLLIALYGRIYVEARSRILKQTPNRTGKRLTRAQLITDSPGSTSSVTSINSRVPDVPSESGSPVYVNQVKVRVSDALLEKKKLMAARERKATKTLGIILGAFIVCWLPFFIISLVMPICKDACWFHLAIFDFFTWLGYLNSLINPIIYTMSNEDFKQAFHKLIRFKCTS

[13] = molecular target: Sodium-dependent noradrenaline transporter (Homo sapiens, UniProt P23975); test: as §1, with “SLC6A2” for “TMEM97”
Chain of Sodium-dependent noradrenaline transporter (P23975 whole entry): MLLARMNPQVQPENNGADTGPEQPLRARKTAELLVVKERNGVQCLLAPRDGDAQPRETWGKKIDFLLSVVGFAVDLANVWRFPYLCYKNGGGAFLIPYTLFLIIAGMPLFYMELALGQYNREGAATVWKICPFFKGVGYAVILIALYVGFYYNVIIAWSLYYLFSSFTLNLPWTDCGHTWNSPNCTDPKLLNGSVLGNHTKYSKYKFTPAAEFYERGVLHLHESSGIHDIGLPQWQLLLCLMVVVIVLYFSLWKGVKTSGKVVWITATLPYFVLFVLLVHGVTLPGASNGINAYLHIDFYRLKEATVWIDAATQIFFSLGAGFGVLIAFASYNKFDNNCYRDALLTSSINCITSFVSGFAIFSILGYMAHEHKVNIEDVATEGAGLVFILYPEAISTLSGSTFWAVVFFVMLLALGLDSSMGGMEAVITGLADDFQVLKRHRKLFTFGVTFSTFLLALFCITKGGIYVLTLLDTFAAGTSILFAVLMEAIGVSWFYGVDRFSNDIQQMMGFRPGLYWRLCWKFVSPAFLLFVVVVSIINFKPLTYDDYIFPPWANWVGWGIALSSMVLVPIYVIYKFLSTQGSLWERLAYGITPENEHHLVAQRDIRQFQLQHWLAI

[14] = molecular target: T6, Muscarinic acetylcholine receptor M5 (Homo sapiens, UniProt P08912); test: as §1, with “CHRM5” for “TMEM97”
T6 sequence (P08912 whole entry): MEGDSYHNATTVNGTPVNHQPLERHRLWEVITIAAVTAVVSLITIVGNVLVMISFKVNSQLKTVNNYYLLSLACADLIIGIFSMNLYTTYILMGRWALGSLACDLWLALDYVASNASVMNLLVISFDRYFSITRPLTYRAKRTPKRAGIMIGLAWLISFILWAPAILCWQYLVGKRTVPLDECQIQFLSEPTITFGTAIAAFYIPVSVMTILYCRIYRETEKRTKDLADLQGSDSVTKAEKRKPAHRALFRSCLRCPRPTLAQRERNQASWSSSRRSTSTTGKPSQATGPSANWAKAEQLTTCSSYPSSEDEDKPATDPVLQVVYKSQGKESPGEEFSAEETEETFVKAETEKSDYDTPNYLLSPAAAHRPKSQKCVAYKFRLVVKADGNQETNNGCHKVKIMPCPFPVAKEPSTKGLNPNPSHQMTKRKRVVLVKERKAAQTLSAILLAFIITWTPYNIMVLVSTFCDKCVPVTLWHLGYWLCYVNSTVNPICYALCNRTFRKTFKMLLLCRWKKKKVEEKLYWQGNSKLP

D(4) dopamine receptor = molecular target: T7, D(4) dopamine receptor (Homo sapiens, UniProt P21917); test: as §1, with “DRD4” for “TMEM97”
T7 sequence (P21917 whole entry): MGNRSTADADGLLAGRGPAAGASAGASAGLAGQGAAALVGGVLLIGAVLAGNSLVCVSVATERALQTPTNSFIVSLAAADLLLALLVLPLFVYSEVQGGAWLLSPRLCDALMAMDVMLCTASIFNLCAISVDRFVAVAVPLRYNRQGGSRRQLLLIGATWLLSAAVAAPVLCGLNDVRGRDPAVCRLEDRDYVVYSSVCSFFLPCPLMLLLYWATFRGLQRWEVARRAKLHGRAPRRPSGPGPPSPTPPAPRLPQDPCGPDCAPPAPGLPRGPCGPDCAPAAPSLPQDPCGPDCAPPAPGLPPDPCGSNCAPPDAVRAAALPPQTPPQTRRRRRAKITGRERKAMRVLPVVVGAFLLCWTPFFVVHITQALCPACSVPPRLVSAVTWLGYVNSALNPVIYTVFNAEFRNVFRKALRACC

Clc1cccc(Cl)c1N=C1NCCN1 [CLONIDINE HYDROCHLORIDE]
pKi [1]: 5.56 | pKi [2]: 5.58 | pKi [3]: 6.06 | pKi [4]: 5.70 | pKi [5]: 5.16

CC(C)NCC(O)COc1cccc2ccccc12 (stereo not given) [PROPRANOLOL HYDROCHLORIDE]
pKi [1]: 6.45 | pKi [6]: 7.02 | pKi [7]: 6.27

CCCCCCCCCCCCCCCCOC[C@H](COP(=O)([O-])OCC[N+](C)(C)C)OC(C)=O
pKi [1]: 5.74 | pKi [2]: 5.35 | pKi [4]: 5.69 | pKi (D(3) dopamine receptor): 5.75 | pKi [5]: 5.51 | pKi [8]: 5.07 | pKi [9]: < 5.00 | pKi [10]: < 5.00

Brc1c(NC2=NCCN2)ccc2nccnc12
pKi [1]: 5.82 | pKi [2]: 5.38 | pKi [3]: 5.96 | pKi [4]: 5.68

C/C(=N\NC(=O)[C@@H]1C(=O)NC[C@H]1c1ccccc1)c1cccc(Br)c1
pKi (Histamine H1 receptor): 5.70 | pKi [11]: 5.41 | pKi (Mu-type opioid receptor): < 5.00

C[C@H](CO)Nc1nc(SCc2cccc(Cl)c2F)nc2[nH]c(=O)sc12
pKi [12]: 5.08 | pKi [13]: < 5.00

Cc1nnn(-c2ccc(-c3ccc(C4(C(=O)O)CC4)cc3)cc2)c1NC(=O)O[C@H](C)c1ccccc1
pKi (Histamine H1 receptor): 5.26 | pKi [14]: < 5.00

CCCn1c(=O)c2[nH]c(-c3cnn(Cc4cccc(C(F)(F)F)c4)c3)nc2n(CC)c1=O [GS 6201]
pKi [4]: < 5.00

Cc1ccccc1C(=O)Nc1ccc(C(=O)N2CCCC(O)c3cc(Cl)ccc32)c(C)c1 (stereo not given) [TOLVAPTAN]
pKi [1]: 5.99 | pKi (Histamine H1 receptor): 5.17 | pKi [5]: 5.31 | pKi (Mu-type opioid receptor): 6.39

COc1ccc(S(=O)(=O)c2cc(OC)ccc2S(=O)(=O)c2ccc([C@H](C)NS(C)(=O)=O)cc2)cc1
pKi (D(4) dopamine receptor): 5.94 | pKi (D(3) dopamine receptor): 6.25 | pKi [7]: 6.55

CSc1ccc(C(=O)N[C@@H]2CCCC[C@@H]2NC(=O)CNC(=O)c2cc(C(F)(F)F)ccc2NC(=O)NC(C)C)cc1
pKi (Histamine H1 receptor): 5.79 | pKi (D(3) dopamine receptor): 5.92

O=C(O)C1CN(Cc2ccc(OCc3ccc(Cl)c(Cl)c3)cc2)C1
pKi (Histamine H1 receptor): < 5.00 | pKi [11]: 5.34 | pKi [6]: 6.31
